Results on 16 molecules are retold here after patent US20130109682A1, “CYCLIC ETHER COMPOUNDS USEFUL AS KINASE INHIBITORS” (NOVARTIS AG, priority 2010, published 2013).

In experiment [1] the target is GSK3β (Homo sapiens, UniProt P49841). Briefly: GSK3β ATP depletion assay. The format is biochemical. As to conditions: ATP depletion assay; read-out: GSK3b IC50. A digest of the protocol:
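Kinase activity is read as ATP consumption: luciferase luminescence reports the ATP remaining once roughly half of the 2 μM ATP is used. Reaction mix: 5 nM GSK3β, 10 μM b-CREB peptide, 50 mM Tris pH 7.5, 15 mM MgCl2, 1 mM DTT, 0.1% BSA, 2.5% DMSO. Enzyme and peptide are preincubated 15 min before ATP is added.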

The target in experiment [2] is PIM1 (Homo sapiens, UniProt P11309). In words: Pim 1 AlphaScreen assay (high ATP). As to conditions: read-out: Pim1 IC50. It is filed as biochemical. How it is done: (§1) Pim1, Pim2, Pim3 AlphaScreen Assay Pim 1, Pim 2 & Pim 3 AlphaScreen assays using high ATP (11-125×ATP Km) were used to determine the biochemical activity of the inhibitors. The activity of Pim 1, Pim 2, & Pim 3 is measured using a homogeneous bead based system quantifying the amount of phosphorylated peptide substrate resulting from kinase-catalyzed phosphoryl transfer to a peptide substrate. Compounds to be tested are dissolved in 100% DMSO and directly distributed to a white 384-well plate at […] per well. To start the reaction, 5 μl of 100 nM Bad peptide (Biotin-AGAGRSRHSSYPAGT —OH) and ATP (concentrations described below) in assay buffer (50 mM Hepes, pH=7.5, 5 mM MgCl2, 0.05% BSA, 0.01% Tween-20, 1 mM DTT) is added to each well. This is followed by the addition of 5 μl/well of Pim 1, Pim 2 or Pim 3 kinase in assay buffer (concentrations described below). Final assay concentrations (described below) are in 2.5% DMSO. The reactions are performed for ˜2 hours, then stopped by the addition of 10 μl of 0.75 μg/ml anti-phospho Ser/Thr antibody (Cell Signaling), 10 μg/ml Protein A AlphaScreen beads (Perkin Elmer), and 10 μg/ml streptavidin coated AlphaScreen beads in stop/detection buffer (50 mM EDTA, 95 mM Tris, pH=7.5, 0.01% Tween-20). The stopped reactions are incubated overnight in the dark. The phosphorylated peptide is detected via an […] initiated chemiluminescence/fluorescence cascade using the Envision plate reader (Perkin Elmer).
(§2) IC50, the half maximal inhibitory concentration, represents the concentration of a test compound that is required for 50% inhibition of its target in vitro under the described assay conditions.
A general note: Alpha assays give light when donor and acceptor beads are brought close together.

Experiment [3] has as its target PIM2 (Homo sapiens, UniProt Q9P1W9). In words: Pim 2 AlphaScreen assay (high ATP). The following applies: read-out: Pim2 IC50. It is filed as biochemical. How it is done:
as §1, §2

The target of experiment [4] is PIM3 (Homo sapiens, UniProt Q86V86). In words: Pim 3 AlphaScreen assay (high ATP). The format is biochemical. The following applies: read-out: Pim3 IC50. The method, then:
as §1, §2

The test system of experiment [5] is KMS11 (human myeloma cell line). In words: Cell proliferation assay (CellTiter-Glo), KMS11. It is filed as cell-based. As to conditions: Homo sapiens, KMS-11; KMS11 cells, cell proliferation; read-out: KMS11-Luc EC50. A digest of the protocol: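 EC50 derived from CellTiter-Glo luminescence after 3-day exposure at 37° C. Compound was diluted to 2× in medium and added to an equal volume of cells. KMS11 myeloma cells were plated on assay day at 2000/well in IMDM with 10% FBS and sodium pyruvate.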
For orientation: ATP-based viability assays read luminescence as a measure of living cells.

Sequence of PIM1 (P11309 whole entry): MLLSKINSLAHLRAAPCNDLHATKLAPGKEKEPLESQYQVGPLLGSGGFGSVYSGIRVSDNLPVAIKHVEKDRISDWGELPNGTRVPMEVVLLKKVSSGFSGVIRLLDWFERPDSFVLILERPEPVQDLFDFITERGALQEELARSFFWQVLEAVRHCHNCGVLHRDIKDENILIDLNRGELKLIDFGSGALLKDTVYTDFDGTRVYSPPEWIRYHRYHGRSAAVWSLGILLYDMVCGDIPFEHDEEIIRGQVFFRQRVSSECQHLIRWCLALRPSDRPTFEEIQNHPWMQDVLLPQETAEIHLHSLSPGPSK
Sequence of PIM2 (Q9P1W9 whole entry): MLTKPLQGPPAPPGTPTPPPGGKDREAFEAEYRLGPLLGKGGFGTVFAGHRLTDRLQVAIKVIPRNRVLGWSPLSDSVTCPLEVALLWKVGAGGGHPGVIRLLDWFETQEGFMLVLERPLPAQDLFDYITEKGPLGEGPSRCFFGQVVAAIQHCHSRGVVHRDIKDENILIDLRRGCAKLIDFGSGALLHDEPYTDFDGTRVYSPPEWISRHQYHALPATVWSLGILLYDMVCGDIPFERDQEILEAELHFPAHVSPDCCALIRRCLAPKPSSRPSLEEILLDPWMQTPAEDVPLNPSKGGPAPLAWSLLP
Sequence of GSK3β (P49841 whole entry, species assumed): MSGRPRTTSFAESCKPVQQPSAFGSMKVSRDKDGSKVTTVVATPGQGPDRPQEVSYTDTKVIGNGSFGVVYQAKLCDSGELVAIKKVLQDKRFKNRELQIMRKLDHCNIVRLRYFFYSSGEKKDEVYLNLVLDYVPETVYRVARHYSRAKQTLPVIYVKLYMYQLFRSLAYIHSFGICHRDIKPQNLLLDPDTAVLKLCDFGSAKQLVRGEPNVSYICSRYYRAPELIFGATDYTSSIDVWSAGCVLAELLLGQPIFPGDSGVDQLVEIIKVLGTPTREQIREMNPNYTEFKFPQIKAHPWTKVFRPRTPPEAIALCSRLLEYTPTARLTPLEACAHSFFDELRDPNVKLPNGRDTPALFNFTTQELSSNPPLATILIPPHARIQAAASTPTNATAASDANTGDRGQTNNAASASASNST

As a reminder, the IC50 is the concentration that gives 50% inhibition. Regarding `CC(C)(C)[C@H]1O[C@@H](c2ccncc2NC(=O)c2ccc(F)c(-c3c(F)cccc3F)n2)C[C@@H](N)[C@@H]1O` [Example 255, N-(4-((2R,4R,5S,6R)-4-amino-6-(tert-butyl)-5-hydroxytetrahydro-2H-pyran-2-yl)pyridin-3-yl)-6-(2,6-difluorophenyl)-5-fluoropicolinamide], the IC50 in experiment [1] was found to be 2190 nM; in experiment [2], 0.03 nM; in experiment [3] it was 1.7 nM; in experiment [4], 0.4 nM.
As usually defined, the EC50 is the concentration at which the effect is half-maximal. As for `CC(C)[C@@H]1C[C@H](N)C[C@H](c2ccncc2NC(=O)c2ccc(F)c(-c3c(F)cccc3F)n2)O1` [Example 300, N-(4-((2R,4S,6S)-4-amino-6-isopropyltetrahydro-2H-pyran-2-yl)pyridin-3-yl)-6-(2,6-difluorophenyl)-5-fluoropicolinamide], the IC50 turned out to be 3300 nM in experiment [1] and 11.5 nM in experiment [3]. Moreover, the EC50 in experiment [5] came to 690 nM.
With `C[C@]1(O)[C@H](N)CC(c2ccncc2NC(=O)c2ccc(F)c(-c3c(F)cc(S(C)(=O)=O)cc3F)n2)O[C@@H]1C1CC1` (stereo in doubt) [Example 281, N-(4-((2S,4R,5S,6R)-4-amino-6-cyclopropyl-5-hydroxy-5-methyltetrahydro-2H-pyran-2-yl)pyridin-3-yl)-6-(2,6-difluoro-4-(methylsulfonyl)phenyl)-5-fluoropicolinamide], the IC50 stood at 4250 nM in experiment [1] and 62.3 nM in experiment [3]. The EC50 in experiment [5] is 1090 nM.
For `C[C@H]1O[C@@H](c2ccncc2NC(=O)c2csc(-c3c(F)cccc3F)n2)C[C@@H](N)[C@]1(C)O` [Example 221, N-(4-((2R,4R,5S,6R)-4-amino-5-hydroxy-5,6-dimethyltetrahydro-2H-pyran-2-yl)pyridin-3-yl)-2-(2,6-difluorophenyl)thiazole-4-carboxamide], the figures for the IC50 in experiment [1], in experiment [2] and in experiment [4] were 74.6 nM, 0.64 nM and 18.7 nM, respectively. In addition, in experiment [5], the EC50 was found to be 7720 nM.
For the molecule `COc1cc(NC(=O)c2ccc(F)c(-c3c(F)cccc3F)n2)c([C@H]2C[C@@H](O)[C@H](O)[C@@H](CO)O2)cn1` [Example 225, 6-(2,6-difluorophenyl)-N-(5-((2R,4R,5S,6R)-4,5-dihydroxy-6-(hydroxymethyl)tetrahydro-2H-pyran-2-yl)-2-methoxypyridin-4-yl)-5-fluoropicolinamide], the IC50 is over 25000 nM in experiment [1], 14600 nM in experiment [2] and over 25000 nM in experiment [4]. Also, the EC50 in experiment [5] is over 10000 nM.
For the molecule `CC1(C)C[C@H](N)C[C@@H](c2ccncc2NC(=O)c2ccc(F)c(-c3c(F)cccc3F)n2)O1` [Example 299, N-(4-((2S,4R)-4-amino-6,6-dimethyltetrahydro-2H-pyran-2-yl)pyridin-3-yl)-6-(2,6-difluorophenyl)-5-fluoropicolinamide], the values for the IC50 in experiment [1] and in experiment [3] were 225 nM and 6.4 nM, respectively. In addition, the EC50 in experiment [5] was 140 nM.
With `N[C@H]1C[C@@H](c2ccncc2NC(=O)c2ccc(F)c(-c3c(F)cccc3F)n2)O[C@H]2CCC[C@H]21` [Example 223, N-(4-((2S,4S,4aS,7aS)-4-aminooctahydrocyclopenta[b]pyran-2-yl)pyridin-3-yl)-6-(2,6-difluorophenyl)-5-fluoropicolinamide], the IC50 in experiment [1] was found to be 9830 nM; in experiment [2], 4.62 nM; in experiment [4], 201 nM. Besides, the EC50 in experiment [5] stood at 4380 nM.
For `CC(C)[C@@H]1C[C@H](N)C[C@H](c2ccncc2NC(=O)c2ccc(F)c(-c3c(F)cc(S(C)(=O)=O)cc3F)n2)O1` [Example 302, N-(4-((2R,4S,6S)-4-amino-6-isopropyltetrahydro-2H-pyran-2-yl)pyridin-3-yl)-6-(2,6-difluoro-4-(methylsulfonyl)phenyl)-5-fluoropicolinamide], the IC50 in experiment [1] was 1580 nM; in experiment [3] it was 71.3 nM. The half-maximal effective concentration (EC50) in experiment [5] stood at 1620 nM.
The matching figures for `C[C@H]1O[C@@H](c2ccncc2NC(=O)c2ccc(F)c(-c3c(F)cc(S(C)(=O)=O)cc3F)n2)C[C@@H](N)[C@]1(C)O` [Example 285, N-(4-((2R,4R,5S,6R)-4-amino-5-hydroxy-5,6-dimethyltetrahydro-2H-pyran-2-yl)pyridin-3-yl)-6-(2,6-difluoro-4-(methylsulfonyl)phenyl)-5-fluoropicolinamide]: 1290 nM, 44.9 nM and 1170 nM.
Turning to `Nc1cc(F)c(-c2c(F)cccc2F)nc1C(=O)Nc1cnccc1[C@H]1C[C@@H](N)[C@@]2(O)CCC[C@H]2O1` [Example 216, 3-amino-N-(4-((2R,4R,4aS,7aR)-4-amino-4a-hydroxyoctahydrocyclopenta[b]pyran-2-yl)pyridin-3-yl)-6-(2,6-difluorophenyl)-5-fluoropicolinamide], the IC50 was found to be 946 nM in experiment [1], 0.14 nM in experiment [2] and 1.7 nM in experiment [4]. In experiment [5], the EC50 worked out at 530 nM.
On to `CC(C)(C)[C@H]1O[C@@H](c2ccncc2NC(=O)c2ccc(F)c(-c3c(F)cc(S(C)(=O)=O)cc3F)n2)C[C@@H](N)[C@@H]1O` [Example 280, N-(4-((2R,4R,5S,6R)-4-amino-6-(tert-butyl)-5-hydroxytetrahydro-2H-pyran-2-yl)pyridin-3-yl)-6-(2,6-difluoro-4-(methylsulfonyl)phenyl)-5-fluoropicolinamide], for which the IC50 came out at 2250 nM in experiment [1] and 11.8 nM in experiment [3]. Besides, the EC50 in experiment [5] was determined as 200 nM.
For `C[C@@H]1O[C@H](c2ccncc2NC(=O)c2csc(-c3c(F)cccc3F)n2)C[C@H](N)[C@@]1(C)O` [Example 222, N-(4-((2S,4S,5R,6S)-4-amino-5-hydroxy-5,6-dimethyltetrahydro-2H-pyran-2-yl)pyridin-3-yl)-2-(2,6-difluorophenyl)thiazole-4-carboxamide], the figures for the IC50 in experiment [1], in experiment [2] and in experiment [4] were 3060 nM, 10.3 nM and 189 nM, respectively. In experiment [5], the EC50 is over 10000 nM.
The matching figures for `O=C(Nc1cc(=O)[nH]cc1[C@H]1C[C@@H](O)[C@H](O)[C@@H](CO)O1)c1ccc(F)c(-c2c(F)cccc2F)n1` [Example 226, 6-(2,6-difluorophenyl)-N-(5-((2R,4R,5S,6R)-4,5-dihydroxy-6-(hydroxymethyl)tetrahydro-2H-pyran-2-yl)-2-oxo-1,2-dihydropyridin-4-yl)-5-fluoropicolinamide]: 10600 nM, 1430 nM, 23500 nM and over 10000 nM.
For `CC(C)[C@H]1OC(c2ccncc2NC(=O)c2ccc(F)c(-c3c(F)cc(S(C)(=O)=O)cc3F)n2)C[C@@H](N)[C@@H]1O` (stereo in doubt) [Example 305, N-(4-((2S,4R,5S,6R)-4-amino-5-hydroxy-6-isopropyltetrahydro-2H-pyran-2-yl)pyridin-3-yl)-6-(2,6-difluoro-4-(methylsulfonyl)phenyl)-5-fluoropicolinamide], the IC50 in experiment [1] was found to be 2840 nM; in experiment [3], 15.3 nM. Moreover, the EC50 in experiment [5] was 310 nM.
Consider `N[C@@H]1C[C@H](c2ccncc2NC(=O)c2csc(-c3c(F)cccc3F)n2)O[C@@H]2CCC[C@H]12` [Example 231, N-(4-((2R,4R,4aR,7aR)-4-aminooctahydrocyclopenta[b]pyran-2-yl)pyridin-3-yl)-2-(2,6-difluorophenyl)thiazole-4-carboxamide], for which the half-inhibitory concentration (IC50) is 53.2 nM in experiment [1], 0.24 nM in experiment [2] and 14.6 nM in experiment [4]. Also, the half-maximal effective concentration (EC50) in experiment [5] worked out at 5820 nM.
As for `CNC(=O)c1cc(F)c(-c2nc(C(=O)Nc3cnccc3[C@H]3C[C@@H](N)[C@](C)(O)[C@@H](C)O3)ccc2F)c(F)c1` [Example 333, N-(4-((2R,4R,5S,6R)-4-amino-5-hydroxy-5,6-dimethyltetrahydro-2H-pyran-2-yl)pyridin-3-yl)-6-(2,6-difluoro-4-(methylcarbamoyl)phenyl)-5-fluoropicolinamide], in experiment [5], the EC50 is 3760 nM. In experiment [3], the IC50 was 27.3 nM.
